The record followed here is US7713960B2, “Inhibition of the Raf/Mek/P-Erk pathway for treating cancer” (University of South Florida, priority 2005, dated 2010).

Counter-ions that a name gives are not always drawn.

The test system of data set [1] is ACHN cells. Briefly: Total cellular cAMP measurement, ACHN. The format is cell-based, human. On the procedure:
Total cellular cAMP measurement—The measurement of total cellular cAMP was done using a cAMP Biotrak ™ Enzymeimmunoassay (EIA) system (Amersham Biosciences, Piscataway, N.J.) according to the manufacturer's protocol. Briefly, 2000 cells were plated into each well of a 96 well plate. The next day cells were treated with increasing concentrations of ARA-211 or with vehicle for one hour. Alternatively, MDA-MB-231 cells were pre-treated with antagonists to the α1 (Prazosin, Sigma), α2 (Yohimbine, Sigma), β1 (Metoprolol, Sigma), and β2 (ICI 118.551, Sigma) adrenergic receptors at 100 nM for 15 minutes followed by treatment with 10 μM ARA-211 for 45 minutes. Cells were then lysed directly in the wells using the supplied lysis buffer. The lysate was transferred to a 96-well cAMP ELISA plate, and results were quantified using a Wallac Victor 2 plate reader.

Data set [2] relates to P-Erk 1/2. The experiment in a line: P-Erk 1/2 levels (Western blotting), SNB-19. It is filed as cell-based, human. On the procedure: (§1) Western Blotting—Treated cell samples were lysed in 30 mM HEPES, 10 mM NaCl, 5 mM MgCl2, 25 mM NaF, 1 mM EGTA, 1% Triton-X-100, 10% Glycerol, 2 mM Sodium orthovanidate, 10 μg/mL aprotinin, 10 μg/mL soybean trypsin inhibitor, 25 μg/mL leupeptin, 2 mM phenylmethylsulfonylfluoride (PMSF), 6.4 mg/mL p-nitrophenylphosphate for 30 minutes at 4° C., and proteins run on SDS-PAGE gels then transferred to nitrocellulose membranes. Membranes were blocked in either 5% milk in PBS, pH 7.4, containing 0.1% Tween-20 (PBS-T) or 1% BSA in TBS, pH 7.5, containing 0.1% Tween-20 (TBS-T). Phospho-STAT3 and phospho-AKT antibodies were diluted in 1% BSA in TBS-T while phospho-c-Raf, phospho-Mek, and phospho-p44/p42 MAPK antibodies (Cell Signaling) were diluted in 5% milk in PBS-T for either 1 hour at room temperature or overnight at 4° C. HRP-conjugated secondary antibodies (Jackson ImmunoResearch, West Grove, Pa.) were diluted in 5% milk in PBS-T or TBS-T at a 1:1000 dilution for one hour at room temperature. Western blots results were visualized using enhanced chemiluminescence. Stripping of the membranes for reblotting was done using stripping buffer (62.5 mM Tris pH 7.6, 2% SDS, 0.7% 2-mercaptoethanol) at 50° C. for 30 minutes.

Data set [3] relates to ACHN cells. Briefly: Anchorage-dependent growth (MTT assay), ACHN. The format is cell-based, human. On the procedure:
MTT Assay—2000 cells per well were plated into 96 well tissue culture plates, and the cells were allowed to attach overnight at 37° C. with 10% CO2. Cells were then treated with increasing concentrations of ARA-211, or vehicle (DMSO) and incubated for four days. At that time treatment medium was removed and replaced with 100 μl of lmg/ml MTT (Sigma-Aldrich, St. Louis, Mo.) in media and incubated at 37° C., 10% CO2 for 3 hours. After 3 hours the MTT media was removed and replaced with 100 μl/well of DMSO, rocked at room temperature for 5 minutes, then absorbance read at 540 nm on a micro-plate reader.
Background: Tetrazolium dyes change colour on reduction, which living cells bring about.

In data set [4] the test system is ACHN cells. Briefly: Anchorage-independent growth (soft agar assay), ACHN. The format is cell-based, human. On the procedure:
Soft Agar Assay—Anchorage independent growth assays were performed as previously described (Lerner et al., 1997). Briefly, agar was diluted to 0.3% in propagation media containing 20,000 cells and either vehicle or ARA-211 and 1 ml of cell/agar mixture plated on top of 2 ml of a 0.6% layer of agar in medium alone. Cells were grown for three to four weeks at 37° C., 10% Co2 and were fed weekly with 100 μl per well of media/treatment. Quantification of colonies was done using a GS-700 scanning densitometer.

For data set [5], the system named is P-Mek-1. Briefly: P-Mek-1 levels (Western blotting), MDA-MB-231. It is filed as cell-based, human. The protocol: as §1
On the technique in general: Immunoblotting shows a protein as a band on a membrane.

Data set [6] deals with P-Akt. Briefly: P-Akt levels (Western blotting), MDA-MB-231. The format is cell-based, human. On the procedure: as §1
The test system of data set [7] is total Erk 1/2. Briefly: Total Erk 1/2 levels, MDA-MB-231. It is filed as cell-based, human. As to conditions: at 10 nM. On the procedure:
as §1

In data set [8] the target is T1, c-Raf-1 (Homo sapiens, UniProt P04049).
T1 construct: c-Raf-1 and Mek-1, immunoprecipitated from MDA-MB-231 cells; endogenous in cells; host or cells: MDA-MB-231
Briefly: In vitro kinase assay, c-Raf-1 immunoprecipitated from MDA-MB-231 cells. As to conditions: immunoprecipitated kinase treated in vitro, 10 μM. The format is biochemical. The protocol:
In Vitro Kinase Assays—MDA-MB-231 cells (2×10^6) were lysed for 30 minutes at 4° C. in RIPA-150 buffer (10 mM Tris pH 7.5, 150 mM NaCl, 10% glycerol, 5 mM EDTA, 1% Triton X-100, 0.1% SDS, 100 μM sodium orthovanadate, 1 μM aprotinin, 10 μM leupeptin, 10 μM antipain). Cell debris was pelleted at 13000 rpm for 15 minutes at 4° C. and the lysate was rocked overnight with 10 μg of either c-Raf or MEK antibodies (Santa Cruz Biotechnologies, Santa Cruz, Calif.). 25 μl of protein A/G PLUS agarose (Santa Cruz Biotechnology) was then added and rocked for 4 hours at 4° C. Samples were spun at 2000 rpm for 5 minutes to collect the agarose beads, which were then washed four times with lysis buffer. On the final wash each pellet was divided into 5. […]

The subject of data set [9] is P-Erk 1/2. Briefly: Growth factor (EGF) stimulation of P-Erk 1/2, MDA-MB-231 cells. The format is cell-based, human.

T1 sequence (P04049 whole entry): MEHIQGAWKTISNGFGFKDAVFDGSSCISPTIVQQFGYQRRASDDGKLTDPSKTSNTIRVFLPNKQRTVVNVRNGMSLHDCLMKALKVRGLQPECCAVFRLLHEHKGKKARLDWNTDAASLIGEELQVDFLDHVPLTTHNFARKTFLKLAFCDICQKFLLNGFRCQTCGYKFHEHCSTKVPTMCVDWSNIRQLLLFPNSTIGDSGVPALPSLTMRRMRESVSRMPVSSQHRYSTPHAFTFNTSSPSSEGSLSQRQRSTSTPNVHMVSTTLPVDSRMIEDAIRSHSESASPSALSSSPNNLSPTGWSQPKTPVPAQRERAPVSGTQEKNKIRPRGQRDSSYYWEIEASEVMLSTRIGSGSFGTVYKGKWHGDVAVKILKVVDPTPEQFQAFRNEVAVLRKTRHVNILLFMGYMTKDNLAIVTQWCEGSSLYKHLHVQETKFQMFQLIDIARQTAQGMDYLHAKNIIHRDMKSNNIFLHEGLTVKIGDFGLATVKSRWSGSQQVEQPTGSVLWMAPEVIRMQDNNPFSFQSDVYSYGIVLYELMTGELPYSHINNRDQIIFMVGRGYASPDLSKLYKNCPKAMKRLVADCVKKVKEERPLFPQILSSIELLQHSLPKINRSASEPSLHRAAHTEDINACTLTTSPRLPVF

With `CC(C)(C)NCC(O)c1ccc(O)c(CO)n1` (stereo not drawn) [ARA-211, 2-hydroxymethyl-3-hydroxy-6-(1-hydroxy-2-tert-butylaminoethyl) pyridine, dihydrochloride], the “cAMP (Fold Induction)” value in [1] is reported as 16.5 ± 3.2 Fold. In data set [2], the “P-Erk ½ (% Inhibition)” value turned out to be 0%. Moreover, the “Anchorage Dependent Growth (% Inhibition)” value in [3] is recorded as 62 ± 12.7%. Further, in data set [4], the “Anchorage Independent Growth (% Inhibition)” value is given as 97.9 ± 1.2%. In addition, the P-Mek-1 levels result in [5] is given as “suppressed”. The P-Akt levels entry in [6] is “not”. Besides, the “levels of total Erk 1/2” value in [7] is reported as “without affecting”. Besides, the “in vitro c-Raf-1 kinase activity” value in data set [8] was “did not inhibit”. In addition, the “growth factor (EGF) stimulation of P-Erk 1/2” value in [9] is given as “is blocked”.
